Data published in PMC7481839, “Switchable foldamer ion channels with antibacterial activity” (Chemical Science, 2020).
Where a SMILES comes first, the peptide text is derived from it.

Assay: Planar bilayer conductance (PBC) studies
Assay type: biochemical
Details: +100 or –100 mV, 50 s sweeps, up to 2 h, final concentration 8.3 µM, 20 mM MOPS, 100 mM NaCl or KCl, pH 7.4
Procedure: The observation of discrete conductance events can indicate channel formation and provide information on the nature of these channels.
PBC experiments were performed in a custom-built cell, with either 2 or Cu(II)[2]Cl2 (5–10 μL of a 1 mM solution in MeOH) added to the ground well. Characterisation sweeps were continued for 2 h, or until substantial channel-forming activity was observed. Single channel experiments were conducted under an applied potential of +100 or –100 mV in 50 s sweeps. […] Large current levels and reproducible well-defined quantized steps from 0.5 to 5 ms in duration (similar to the “flicker” behaviour described by Chui and Fyles[42]) were measured (Fig. 6). […] This could imply [Cu(II)[2]Cl]^+ cations[44] are involved in the channel-forming species. Channel events have multilevel conductances, both at +100 mV (∼0.08 nS, ∼0.14 nS) and at –100 mV potentials (∼0.08 nS, ∼0.15 nS).
The blue product from the addition of CuCl to 2 was also assessed using PBC experiments. […] In addition, much longer lived “square topped” openings could also be observed (Fig. 6b). These very regular well-defined quantized current steps were open for up to 20 ms at +100 mV, with multiple stepwise increases in conductance with ∼0.18 nS increments.[46] […]

CC(C)(NC(=O)C(C)(C)NC(=O)C(C)(C)NC(=O)C(C)(C)NC(=O)C(C)(C)n1cc(CN(Cc2ccccn2)Cc2ccccn2)nn1)C(=O)NC(C)(C)C(=O)NC(C)(C)C(=O)NC(C)(C)C(=O)OCC[Si](C)(C)C [foldamer 2] (HELM PEPTIDE1{[CC(C)(C(=O)[*:2])n1cc(CN(Cc2ccccn2)Cc2ccccn2)nn1].[Aib].[Aib].[Aib].[Aib].[Aib].[Aib].[Aib].[C[Si](C)(C)CCO[*:1]]}$$$$V2.0)
ion channel behaviour in PBC: did not display any ion channel behaviour
